The record followed here is patent EP4417602A1, “SUBSTITUTED PYRAZOLE CARBOXAMIDES, SALTS THEREOF AND THEIR USE AS HERBICIDALLY ACTIVE SUBSTANCES” (Bayer AG, priority 2023, dated 2024).

Assay [1] relates to AVEFA. Put plainly: C. Herbicidal pre-emergence action, weed and crop plants (Tables C). The class given is in vivo, Avena fatua. Particulars: application rate 320 g/ha; Table C4. An excerpt:
(§1) Seeds of mono- and dicotyledonous weed plants and crop plants were sown, in plastic or organic planting pots, in sandy loam and covered with soil. The compounds according to the invention, formulated in the form of wettable powders (WP) or as emulsifiable concentrates (EC), were applied to the surface of the covering soil as aqueous suspension or emulsion, with the addition of 0.5% of an additive, at an application rate of 6001 of water/ha (converted). Following treatment, the pots were placed in a greenhouse and kept under optimum growth conditions for the test plants. The visual grading of the damage to the test plants was carried out after ca. 3 weeks in comparison to untreated controls (herbicidal effect in percent (%): 100% effect = plants have died off, 0% effect = as control plants). Tables C1 to C12 below show the effects of selected compounds of the general formula (I) according to table 1 on various harmful plants and an application rate corresponding to 320 g/ha or below obtained by the experimental procedure mentioned above. Table C1: pre-emergence activity at 320g/ha against KCHSC in %

Assay [2] relates to LOLRI. Kind of assay: E. Herbicidal post-emergence action, weed and crop plants (Tables E). The class given is in vivo, Lolium rigidum. Particulars: application rate 320 g/ha, visual assessment after ca. 3 weeks. An excerpt:
(§2) Seeds of mono- and dicotyledonous weed plants and crop plants were sown, in plastic or organic planting pots, in sandy loam, covered with soil and grown in a greenhouse under controlled growth conditions. 2 to 3 weeks after sowing, the test plants were sprayed in the single-leaf stage. The compounds according to the invention, formulated in form of wettable powders (WP) or as emulsifiable concentrates (EC), were sprayed onto the green plant parts as aqueous suspension or emulsion, with the addition of 0.5% of an additive, at an application rate of 6001 of water/ha (converted). The test plants were placed in the greenhouse for ca. 3 weeks under optimum growth conditions, and then the effect of the preparations was assessed visually in comparison with untreated controls (herbicidal effect in percent (%): 100% effect = plants have died off, 0% effect = as control plants). Tables E1 to E7 below show the effects of selected compounds of the general formula (I) according to table 1 on various harmful plants and an application rate corresponding to 320 g/ha or below obtained by the experimental procedure mentioned above. Table E1: post-emergence activity at 320g/ha against ALOMY in %

In assay [3] the test system is VERPE. The description is as above. The class given is in vivo, Veronica persica. Particulars: application rate 320 g/ha, visual assessment after ca. 3 weeks.
Text: as §2

Assay [4] deals with ABUTH. Kind of assay: A. Herbicidal pre-emergence action on harmful plants (Tables A). In kind it is in vivo, Abutilon theophrasti. Particulars: application rate 1280 g/ha; visual grading after ca. 3 weeks vs untreated controls; 100% = plants have died off, 0% = as control plants. An excerpt: Seeds of mono- and dicotyledonous weed plants were sown in plastic pots (double sowings with one species of mono- and one species of dicotyledonous weed plants per pot), in sandy loam, and covered with soil. The compounds according to the invention, formulated in the form of wettable powders (WP) or as emulsifiable concentrates (EC), were applied to the surface of the covering soil as aqueous suspension or emulsion, with the addition of 0.5% of an additive, at an application rate of 6001 of water per hectare (converted). Following treatment, the pots were placed in a greenhouse and kept under optimum growth conditions for the test plants. The visual grading of the damage to the test plants was carried out after ca. 3 weeks in comparison to untreated controls (herbicidal effect in percent (%): 100% effect = plants have died off, 0% effect = as control plants). Tables A1 to A12, below, show the effects of selected compounds of the general formula (I) according to table 1 on various harmful plants and an application rate corresponding to 1280 g/ha or below obtained by the experimental procedure mentioned above. Table A1: pre-emergence activity at 1280g/ha against ABUTH in %

Assay [5] relates to MATIN. Put plainly: E. Herbicidal post-emergence action, weed and crop plants (Tables E). In kind it is in vivo, Matricaria inodora. The conditions noted are these: application rate 320 g/ha, visual assessment after ca. 3 weeks.
Text: as §2

Assay [6] concerns MATIN. Kind of assay: B. Herbicidal post-emergence action on harmful plants (Tables B). The conditions noted are these: application rate 1280 g/ha; Table B4a. The class given is in vivo, Matricaria inodora. An outline of the steps:
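Activity was scored visually as % damage (100% = dead, 0% = like untreated) about 3 weeks after treatment. Plants at the one-leaf stage, 2-3 weeks old, were sprayed with WP/EC formulations plus 0.5% additive (600 L/ha water, up to 1280 g/ha). Plants were grown in sandy loam in a greenhouse.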

Assay [7] has as its system LOLRI. The assay is described as above. In kind it is in vivo, Lolium rigidum. Particulars: application rate 1280 g/ha; Table B3. How it is done:
Seeds of mono- and dicotyledonous weed plants were placed in plastic pots in sandy loam soil (doubly sown with in each case one species of mono- or dicotyledonous weed plants per pot), covered with soil and cultivated in a greenhouse under controlled growth conditions. 2 to 3 weeks after sowing, the test plants were treated at the one-leaf stage. The compounds of the invention, formulated in the form of wettable powders (WP) or as emulsion concentrates (EC), were applied onto the green parts of the plants as aqueous suspension or emulsion with addition of 0.5% additive at a water application rate of 600 liters per hectare (converted). After the test plants had been kept in the greenhouse under optimum growth conditions for about 3 weeks, the activity of the preparations was rated visually in comparison to untreated controls. For example, 100% activity = the plants have died, 0% activity = like control plants. Tables B1 to B12, below, show the effects of selected compounds of the general formula (I) according to table 1 on various harmful plants and an application rate corresponding to 1280 g/ha or below obtained by the experimental procedure mentioned above. Table B1a: post-emergence activity at 1280g/ha against ABUTH in %

The test system of assay [8] is POLCO. Kind of assay: C. Herbicidal pre-emergence action, weed and crop plants (Tables C). The class given is in vivo, Polygonum convolvulus. Particulars: application rate 320 g/ha; Table C9.
Text: as §1

Consider `COCc1nn(C)cc1C(=O)N1CCCC1Cc1ccccc1F` (racemic) [Example I-002], for which the “pre-emergence activity against AVEFA” value in assay [1] was determined as 80%.

In the case of `COCc1nn(C)cc1C(=O)N1CCCC1Cc1ccccc1F` (single isomer, unassigned) [Example I-003], the “post-emergence activity against LOLRI in %” value in assay [2] is reported as 80%. Besides, the “pre-emergence activity against AVEFA” value in assay [1] is listed as 90%. Also, the “post-emergence activity against VERPE in %” value in assay [3] amounted to 80%.

For the compound `COCc1c(C(=O)N2CCCC2Cc2ccccc2Cl)cnn1C` (racemic) [Example I-170], the “post-emergence activity against LOLRI in %” value in assay [2] was 80%. Also, the “pre-emergence activity against ABUTH” value in assay [4] came out at 90%. Further, the “post-emergence activity against MATIN in %” value in assay [5] is 80%. In assay [6], the “post-emergence activity against MATIN” value is 90%. Further, the “post-emergence activity against LOLRI” value in assay [7] is listed as 90%.

Take `C=C(c1ccccc1F)C1CCCN1C(=O)c1cn(C)nc1COC` (racemic) [Example I-023]: in assay [8], the “pre-emergence activity against POLCO” value was 80%. Also, in assay [7], the “post-emergence activity against LOLRI” value is on record as 90%.
